Laboratory results: EP0404374A2, “Composition” (IMPERIAL CHEMICAL INDUSTRIES PLC, priority 1989, dated 1990)
Structures can show the parent of a compound that is named as a salt.

What was measured:
[1] = tested on: cellulase from Aspergillus niger; experiment: cellulase activity: viscosity (flow time) of carboxymethyl cellulose solution; assay type: biochemical; conditions: additive 10mM dm⁻³ pre-incubated with enzyme one hour at 25°C, about 24 minutes in the absence of cellulase; for Flow Rate (b) With additive 10: flow time after 10 minutes incubation; for Flow Rate (b) With additive 60: flow time after 60 minutes incubation
Experimental: To determine cellulase activity, 15cm³ of a 1% w/v solution of carboxymethyl cellulose in 50mM/dm³ of a tris (hydroxymethyl) aminomethane/hydrochloric acid buffer having a pH of 9, was incubated at 25°C with 0.01cm³ of a 10mg.cm⁻³ aqueous solution of cellulase from Aspergillus niger obtained from the Sigma Chemical Company.
The viscosity of the cellulose solution was determined after being incubated with the cellulase for either 10 or 60 minutes
To determine the effect of an additive on the spoilage activity of the enzyme, the compound was incubated with the enzyme at 25°C for a period of one hour, the concentration of the additive being 10mM dm⁻³ . The pre-incubated mixture was then added to a carboxymethyl cellulose solution of the type previously described. The resulting mixture was incubated and the viscosity was determined after 10 and 60 minutes incubation.

[2] = tested on: purified components of the cellulase complex; conditions: Wood et al, Biochem.J. (1980), 189, 51 to 65; cited from earlier work
[3] = tested on: protease from S. griseus; experiment: protease catalysed hydrolysis of chromogenic substrate; assay type: biochemical; conditions: substrate BTEE, one hour at 25°C, pH7
Experimental: N,N¹-dichlorodimethyl hydantoin was dissolved in ethanol in a known amount and was added to a protease in a 0.1M potassium phosphate buffer containing potassium dihydrogen phosphate and dipotassium hydrogen phosphate at pH7. The mixture was incubated for one hour at 25°C and the enzyme activity was then compared to that of a control by monitoring the protease catalysed hydrolysis of an appropriate chromogenic substrate.

[4] = tested on: amylase (1,4-α-D-glucan-glucanhydrolase; EC 3.2.1.1); experiment: amylase activity in the breakdown of starch (3,5-dinitrosalicylate, absorbance at 540nm); assay type: biochemical, Bacillus species; conditions: amylase incubated for 90 minutes with 9 X 10⁻⁴M compound; absorption at 540nm
Experimental: A sample of amylase (1,4-α-D-glucan-glucanhydrolase; EC 3.2.1.1) from a Bacillus species (amylase sample obtained from the Sigma Chemical Company) was tested for activity in the breakdown of starch in the presence and absence of N,N¹-dichlorodimethyl hydantoin.
The activity of the amylase was estimated by a modification of the method described in Methods in Enzymology, published by the Academic Press, Volume 1, on page 149.
1g of potato amylopectin (a soluble starch) was dissolved in 200cm³ of a 20mM sodium phosphate aqueous buffer solution adjusted to pH7. 1cm³ of this solution was equilibrated in a water bath maintained at 25 °C. To the foregoing solution were added 2mm³ of an aqueous solution containing amylase in a concentration of 1mg of amylase/cm³ of solution. The mixture was incubated at 25 °C for five minutes. The reaction was then stopped by the addition of 1cm³ of a 0.4M aqueous sodium hydroxide solution containing 10mg/cm³ of 3,5-dinitrosalicylate and 0.3g/cm³ of sodium potassium tartrate. The resultant mixture was placed in a boiling water bath for five minutes, cooled rapidly and diluted with 10cm³ of water (deionised and subsequently doubly distilled in glass apparatus). The absorbance of the resulting mixture at 540nm was determined using a Perkin Elmer LAMBDA 15 spectrophoto meter.

[5] = biological target: chymotrypsin (EC 3.4.21.1) (Bos taurus, UniProt P00766); experiment: protease catalysed hydrolysis of chromogenic substrate; assay type: biochemical; conditions: pH 7, substrate BTEE, one hour at 25°C, pH7, read-out: % of activity retained (h)
Experimental: N,N¹-dichlorodimethyl hydantoin was dissolved in ethanol in a known amount and was added to a protease in a 0.1M potassium phosphate buffer containing potassium dihydrogen phosphate and dipotassium hydrogen phosphate at pH7.

[6] = tested on: lipase from Candida cylindracea; experiment: lipase activity, turbidimetric method with triolein; assay type: biochemical; conditions: enzyme CC; 9 millimoles; incubated 30 minutes at 25°C, pH 9.2; relative to control
Experimental: (§1) N,N¹-dichlorodimethyl hydantoin in an amount of 9 millimoles was dissolved in ethanol and added to a lipase in a tris (hydroxymethyl) aminomethane/hydrochloric acid buffer at a pH of 9.2. The mixture was incubated for 30 minutes at 25°C and neutralised by the addition of thiosulphate. The activity of the enzyme was determined as described hereafter.
(§2) Lipase activity was determined by the turbidimetric method described on pages 26 to 34 of "Methods of Enzymatic Analysis" Third Edition, edited by H V Bergmeyer and published by Verlag Chemie. The decrease in the light scattering of triolein (1,2,3-tris[cis-9-octadecenoyl]glycerol) by lipase was measured at 25°C and 350 nanometres on a Perkin-Elmer Lambda 15 spectrophotometer. Light scattering was measured on 2.8cm³ of an aqueous solution containing 24 micromoles of "Tris" buffer at pH 9.2, one micromole of calcium chloride, 35 micromoles of sodium chloride, 17.5 micromoles of sodium deoxycholate and 0.28 micromole of triolein. The activity was determined by the addition of 5mm³ of an aqueous solution containing 4.5mg cm⁻³ of lipase. Table Two

[7] = tested on: lipase from Pseudomonas species; experiment: as above; assay type: biochemical; conditions: enzyme PS; 9 millimoles; incubated 30 minutes at 25°C, pH 9.2; relative to control
Experimental: as §1, §2

Row | Molecule | Flow Rate (b) With additive 10 [1] [min] | Flow Rate (b) With additive 60 [1] [min] | also measured
1 | Cln1cncn1 [CT, 1-chloro-1,2,4-triazole] | 23.50 | 22.90 | –
2 | sodium tetrachloroaurate [STCA] | 23.80 | 23.70 | –
3 | CC(=O)OI(OC(C)=O)c1ccccc1 [PIDA, phenyl iodonium di-acetate] | 22.60 | 21.80 | –
4 | O=C1CCC(=O)N1Br [N-bromosuccinimide] | – | – | effect on the activity of the enzyme [2]: potent inhibitor
5 | O=c1[nH]c(=O)n(Cl)c(=O)n1Cl [DCIS, sodium salt of dichlorosiocyanuric acid] | 21.90 | 19.40 | –
6 | O=S(=O)(c1ccccc1)N(Cl)Cl [DCBS, N,N-dichlorobenzene sulphonamide] | 21.20 | 18.80 | –
7 | O=C1N(Cl)C2C(N1Cl)N(Cl)C(=O)N2Cl (centres unmarked) [TCG, tetrachloroglycoluril] | 23.60 | 23.00 | –
8 | CC1(C)C(=O)N(Cl)C(=O)N1Cl [DCMH, N,N¹-dichlorodimethyl hydantoin] | 23.10 | 22.90 | % of activity retained (h) ([3]; DCMH 0.9 mM): 88%; % of activity retained (h) ([3]; DCMH 9.0 mM): 9%; breakdown of starch to sugar [4]: no breakdown of starch to sugar could be deteced; activity at 900 µM ([5]; DCMH 0.9 mM): 66%; activity at 9000 µM ([5]; DCMH 9.0 mM): 29%; % of activity retained (d) [6]: 14%; % of activity retained (d) [7]: 45%
9 | CC12N(Cl)C(=O)N(Cl)C1(C)N(Cl)C(=O)N2Cl (centres unmarked) [TCMG, tetrachloro-dimethyl glycoluril] | 22.80 | 22.50 | –
10 | O=c1[nH]c(=O)n(Cl)c(=O)n1Cl [DCIA, dichloroisocyanuric acid] | 22.10 | 22.30 | –
